Where “and” joins values, the source holds several entries; their conditions need not be identical. Equal values may be shown once.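 Tested at 5 concentrations; 48 h exposure; 96-well plates; endpoints linearly interpolated, else capped at highest concentration. At the GI50, growth is halved. TGI: concentration producing complete growth inhibition.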
Legend:
Test in all cases: NCI tumour cell line growth inhibition, 48 h
SNB-75 CNS = test system: SNB-75 CNS
UO-31 renal = test system: UO-31 renal
DU-145 prostate = test system: DU-145 prostate
MDA-MB-435 = test system: MDA-MB-435
MALME-3M melanoma = test system: MALME-3M melanoma
OVCAR-3 ovarian = test system: OVCAR-3 ovarian
OVCAR-4 ovarian = test system: OVCAR-4 ovarian
HT29 colon = test system: HT29 colon
786-0 renal = test system: 786-0 renal
A498 renal = test system: A498 renal
HOP-62 NSCLC = test system: HOP-62 NSCLC
SK-MEL-5 melanoma = test system: SK-MEL-5 melanoma
SF-268 CNS = test system: SF-268 CNS
HS 578T breast = test system: HS 578T breast
NCI/ADR-RES ovarian = test system: NCI/ADR-RES ovarian
T-47D breast = test system: T-47D breast
MCF7 breast = test system: MCF7 breast
IGROV1 ovarian = test system: IGROV1 ovarian
HCT-15 colon = test system: HCT-15 colon
SK-OV-3 ovarian = test system: SK-OV-3 ovarian
SF-295 CNS = test system: SF-295 CNS
NCI-H226 lung = test system: NCI-H226 lung
SN12C renal = test system: SN12C renal
OVCAR-8 ovarian = test system: OVCAR-8 ovarian
SR leukemia = test system: SR leukemia
PC-3 prostate = test system: PC-3 prostate
HL-60(TB) leukemia = test system: HL-60(TB) leukemia
HOP-92 NSCLC = test system: HOP-92 NSCLC
MDA-MB-231 breast = test system: MDA-MB-231 breast
RPMI-8226 leukemia = test system: RPMI-8226 leukemia
RXF 393 renal = test system: RXF 393 renal
SK-MEL-28 melanoma = test system: SK-MEL-28 melanoma
UACC-62 melanoma = test system: UACC-62 melanoma
CCRF-CEM leukemia = test system: CCRF-CEM leukemia
ACHN renal = test system: ACHN renal
NCI-H460 lung = test system: NCI-H460 lung
M14 melanoma = test system: M14 melanoma
LOX IMVI melanoma = test system: LOX IMVI melanoma
COLO 205 colon = test system: COLO 205 colon
BT-549 breast = test system: BT-549 breast
A549 NSCLC = test system: A549 NSCLC
HCT-116 colon = test system: HCT-116 colon
NCI-H522 lung = test system: NCI-H522 lung
NCI-H23 lung = test system: NCI-H23 lung
UACC-257 melanoma = test system: UACC-257 melanoma
K-562 leukemia = test system: K-562 leukemia
TK-10 renal = test system: TK-10 renal
SW-620 colon = test system: SW-620 colon
SF-539 CNS = test system: SF-539 CNS
EKVX NSCLC = test system: EKVX NSCLC
CAKI-1 renal = test system: CAKI-1 renal
KM12 colon = test system: KM12 colon
U251 CNS = test system: U251 CNS
OVCAR-5 ovarian = test system: OVCAR-5 ovarian
HCC-2998 colon = test system: HCC-2998 colon
SK-MEL-2 melanoma = test system: SK-MEL-2 melanoma
MOLT-4 leukemia = test system: MOLT-4 leukemia
SNB-19 CNS = test system: SNB-19 CNS

## Nc1nc(=O)n(C2CC(O)C(CO)O2)cc1F (stereo unspecified)
SNB-75 CNS
  TGI: > 100 µM
UO-31 renal
  TGI: > 43.3 µM
DU-145 prostate
  TGI: > 100 µM
MDA-MB-435
  GI50: > 100 µM
  TGI: > 100 µM
MALME-3M melanoma
  GI50: > 100 µM
  TGI: > 100 µM
OVCAR-3 ovarian
  TGI: > 100 µM
OVCAR-4 ovarian
  GI50: 47.7 µM
  TGI: > 100 µM
HT29 colon
  GI50: < 0.0489 µM
  TGI: > 100 µM
786-0 renal
  GI50: 0.0589 µM
  TGI: > 100 µM
A498 renal
  GI50: 0.046 µM
  TGI: > 100 µM
HOP-62 NSCLC
  TGI: > 100 µM
SK-MEL-5 melanoma
  GI50: 0.228 µM
  TGI: > 100 µM
SF-268 CNS
  GI50: 0.00946 µM
  TGI: > 100 µM
HS 578T breast
  GI50: 55.2 µM
  TGI: > 100 µM
NCI/ADR-RES ovarian
  GI50: 0.107 µM
  TGI: > 100 µM
T-47D breast
  GI50: > 100 µM
  TGI: > 100 µM
MCF7 breast
  GI50: 0.00235 µM
  TGI: > 100 µM
IGROV1 ovarian
  GI50: > 100 µM
  TGI: > 100 µM
HCT-15 colon
  GI50: 28.4 µM
  TGI: > 100 µM
SK-OV-3 ovarian
  GI50: > 100 µM
  TGI: > 100 µM
SF-295 CNS
  TGI: > 100 µM
NCI-H226 lung
  TGI: > 100 µM
SN12C renal
  GI50: 0.199 µM
  TGI: > 25.8 µM
OVCAR-8 ovarian
  GI50: 0.0594 µM
  TGI: > 100 µM
SR leukemia
  GI50: > 100 µM
  TGI: > 100 µM
PC-3 prostate
  GI50: 1.47 µM
  TGI: > 100 µM
HL-60(TB) leukemia
  GI50: > 80.8 µM
  TGI: > 100 µM
HOP-92 NSCLC
  GI50: 1.65 µM
MDA-MB-231 breast
  GI50: 10.7 µM
  TGI: > 100 µM
RPMI-8226 leukemia
  TGI: > 100 µM
RXF 393 renal
  GI50: > 57.8 µM
  TGI: > 100 µM
SK-MEL-28 melanoma
  TGI: > 100 µM
UACC-62 melanoma
  GI50: < 0.0473 µM
  TGI: > 100 µM
CCRF-CEM leukemia
  GI50: 0.00276 µM
  TGI: > 100 µM
ACHN renal
  GI50: 0.00802 µM and < 0.0108 µM
  TGI: > 100 µM
NCI-H460 lung
  GI50: 0.00231 µM
  TGI: > 100 µM
M14 melanoma
  GI50: 0.222 µM
  TGI: > 100 µM
LOX IMVI melanoma
  GI50: 0.01 µM
  TGI: > 100 µM
COLO 205 colon
  TGI: > 100 µM
BT-549 breast
  TGI: > 100 µM
A549 NSCLC
  GI50: 0.0049 µM
  TGI: > 100 µM
HCT-116 colon
  GI50: 1.49 µM
  TGI: > 100 µM
NCI-H522 lung
  TGI: > 100 µM
NCI-H23 lung
  GI50: < 0.0332 µM
  TGI: > 28.5 µM
UACC-257 melanoma
  GI50: > 100 µM
  TGI: > 100 µM
K-562 leukemia
  GI50: > 100 µM
  TGI: > 100 µM
TK-10 renal
  GI50: > 100 µM
  TGI: > 100 µM
SW-620 colon
  TGI: > 100 µM
SF-539 CNS
  GI50: 0.00418 µM
  TGI: < 0.0448 µM
EKVX NSCLC
  TGI: > 100 µM
CAKI-1 renal
  GI50: < 0.0119 µM
  TGI: > 100 µM
KM12 colon
  GI50: > 66.3 µM
  TGI: > 100 µM
U251 CNS
  GI50: < 0.0506 µM
  TGI: > 100 µM
OVCAR-5 ovarian
  GI50: > 100 µM
  TGI: > 100 µM
HCC-2998 colon
  GI50: 0.000943 µM
  TGI: > 26.4 µM
SK-MEL-2 melanoma
  TGI: > 100 µM
MOLT-4 leukemia
  GI50: 0.00502 µM

## COc1ccc(-n2cc(-c3cc(OC)c(OC)c(OC)c3)nc2SCc2ccc(Cl)cc2)cc1OC
SNB-75 CNS
  GI50: 9.82 µM
  TGI: > 100 µM
UO-31 renal
  GI50: 27.8 µM
  TGI: > 100 µM
DU-145 prostate
  GI50: > 100 µM
  TGI: > 100 µM
MDA-MB-435
  GI50: > 100 µM
  TGI: > 100 µM
MALME-3M melanoma
  GI50: > 100 µM
  TGI: > 100 µM
OVCAR-3 ovarian
  GI50: > 100 µM
  TGI: > 100 µM
OVCAR-4 ovarian
  GI50: 71.9 µM
  TGI: > 100 µM
HT29 colon
  GI50: > 100 µM
  TGI: > 100 µM
786-0 renal
  GI50: > 100 µM
  TGI: > 100 µM
A498 renal
  GI50: 89 µM
  TGI: > 100 µM
HOP-62 NSCLC
  GI50: > 100 µM
  TGI: > 100 µM
SK-MEL-5 melanoma
  GI50: 41.7 µM
  TGI: > 100 µM
SF-268 CNS
  GI50: > 100 µM
  TGI: > 100 µM
HS 578T breast
  GI50: 66.5 µM
  TGI: > 100 µM
NCI/ADR-RES ovarian
  GI50: 81.6 µM
  TGI: > 100 µM
T-47D breast
  GI50: 15.1 µM
  TGI: > 100 µM
MCF7 breast
  GI50: 92.6 µM
  TGI: > 100 µM
HCT-15 colon
  GI50: 30.5 µM
  TGI: > 100 µM
SK-OV-3 ovarian
  GI50: > 100 µM
  TGI: > 100 µM
SF-295 CNS
  GI50: > 100 µM
  TGI: > 100 µM
NCI-H226 lung
  GI50: > 100 µM
  TGI: > 100 µM
SN12C renal
  GI50: > 100 µM
  TGI: > 100 µM
OVCAR-8 ovarian
  GI50: > 100 µM
  TGI: > 100 µM
SR leukemia
  GI50: > 100 µM
  TGI: > 100 µM
PC-3 prostate
  GI50: 35.3 µM
  TGI: > 100 µM
HL-60(TB) leukemia
  GI50: 78 µM
  TGI: > 100 µM
HOP-92 NSCLC
  GI50: 65.5 µM
  TGI: > 100 µM
MDA-MB-231 breast
  GI50: > 100 µM
  TGI: > 100 µM
RPMI-8226 leukemia
  GI50: > 100 µM
  TGI: > 100 µM
RXF 393 renal
  GI50: > 100 µM
  TGI: > 100 µM
SK-MEL-28 melanoma
  GI50: > 100 µM
  TGI: > 100 µM
UACC-62 melanoma
  GI50: 35.5 µM
  TGI: > 100 µM
CCRF-CEM leukemia
  GI50: > 100 µM
  TGI: > 100 µM
ACHN renal
  GI50: > 100 µM
  TGI: > 100 µM
NCI-H460 lung
  GI50: > 100 µM
  TGI: > 100 µM
SNB-19 CNS
  GI50: > 100 µM
  TGI: > 100 µM
M14 melanoma
  GI50: > 100 µM
  TGI: > 100 µM
LOX IMVI melanoma
  GI50: > 100 µM
  TGI: > 100 µM
COLO 205 colon
  GI50: > 100 µM
  TGI: > 100 µM
BT-549 breast
  GI50: > 100 µM
  TGI: > 100 µM
A549 NSCLC
  GI50: 53.2 µM
  TGI: > 100 µM
HCT-116 colon
  GI50: > 100 µM
  TGI: > 100 µM
NCI-H522 lung
  GI50: 41.2 µM
  TGI: > 100 µM
NCI-H23 lung
  GI50: > 100 µM
  TGI: > 100 µM
UACC-257 melanoma
  GI50: > 100 µM
  TGI: > 100 µM
K-562 leukemia
  GI50: 87.5 µM
  TGI: > 100 µM
TK-10 renal
  GI50: > 100 µM
  TGI: > 100 µM
SW-620 colon
  GI50: > 100 µM
  TGI: > 100 µM
SF-539 CNS
  GI50: > 100 µM
  TGI: > 100 µM
EKVX NSCLC
  GI50: 95.3 µM
  TGI: > 100 µM
CAKI-1 renal
  GI50: > 100 µM
  TGI: > 100 µM
KM12 colon
  GI50: > 100 µM
  TGI: > 100 µM
U251 CNS
  GI50: > 100 µM
  TGI: > 100 µM
OVCAR-5 ovarian
  GI50: > 100 µM
  TGI: > 100 µM
HCC-2998 colon
  GI50: > 100 µM
  TGI: > 100 µM
SK-MEL-2 melanoma
  GI50: > 100 µM
  TGI: > 100 µM
MOLT-4 leukemia
  GI50: > 100 µM
  TGI: > 100 µM

Reference: PubChem BioAssay (NCI)
